How the values were obtained:
[1] = Antipoliferative activity against human PC3 cells after 48 hrs by MTT assay; assay type: functional, cell-based; conditions: PC-3, 48 h
[2] = Antipoliferative activity against human Caco2 cells after 48 hrs by MTT assay; assay type: functional, cell-based; conditions: Caco-2, 48 h
[3] = test system: HepG2; assay: Antipoliferative activity against human HepG2 cells after 48 hrs by MTT assay; assay type: functional, cell-based; conditions: HepG2, 48 h
[4] = test system: MCF7; assay: Antipoliferative activity against human MCF7 cells after 48 hrs by MTT assay; assay type: functional, cell-based; conditions: MCF7, 48 h
[5] = test system: Rattus norvegicus; assay: Toxicity in rat assessed as hypercalcemic activity at 30 mg/kg/day administered for 7 days; assay type: organism-based; conditions: in vivo, 168 h
[6] = Cytotoxicity against human L02 cells after 48 hrs by MTT assay; assay type: cell-based; conditions: L02, 48 h
[7] = test system: Rattus norvegicus; assay: Toxicity in rat assessed as hypercalcemic activity at 0.5 mg/kg/day administered for 7 days; assay type: organism-based; conditions: in vivo, 168 h
[8] = test system: Rattus norvegicus; assay: Toxicity in rat assessed as hypercalcemic activity at 10 mg/kg/day administered for 7 days; assay type: organism-based; conditions: in vivo, 168 h
[9] = biological target: T1, Vitamin D3 receptor (Homo sapiens, UniProt P11473); assay: Binding affinity to vitamin D3 receptor (unknown origin) after 4 hrs using fluormone VDR red by polar screen VDR competitor assay
T1 sequence (P11473 whole entry): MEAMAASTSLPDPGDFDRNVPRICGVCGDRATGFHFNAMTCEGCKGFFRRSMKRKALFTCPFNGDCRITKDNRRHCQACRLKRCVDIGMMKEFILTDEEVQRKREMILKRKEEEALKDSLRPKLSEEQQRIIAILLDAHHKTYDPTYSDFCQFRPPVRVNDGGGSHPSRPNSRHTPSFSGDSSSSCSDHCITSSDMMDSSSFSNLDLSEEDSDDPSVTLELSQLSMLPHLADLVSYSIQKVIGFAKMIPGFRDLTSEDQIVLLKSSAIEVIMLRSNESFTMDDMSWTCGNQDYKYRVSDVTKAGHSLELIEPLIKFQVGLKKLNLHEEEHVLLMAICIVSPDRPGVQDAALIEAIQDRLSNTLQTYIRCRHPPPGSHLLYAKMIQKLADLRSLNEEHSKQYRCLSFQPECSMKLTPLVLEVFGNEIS

[10] = test system: Rattus norvegicus; assay: Toxicity in rat assessed as serum calcium level at 0.5 ug/kg/day administered for 7 days (reference value: 7.25 mg/dl); assay type: organism-based; conditions: in vivo, 0.0005 mg/kg, 168 h

Compound | IC50 [1] [nM] | IC50 [2] [nM] | IC50 [3] [nM] | IC50 [4] [nM] | Activity [5] | IC50 [6] [nM] | Activity [7] | Activity [8] | IC50 [9] [nM] | Activity [10] [mg/dL]
CCC(CC)(c1ccc(OCC(=O)C(C)(C)C)c(C)c1)c1ccc(OCC(=O)C(C)(C)C)c(C)c1 | > 50000 | 16900 | > 50000 | 7800 | Non-toxic | 5100 | – | – | – | –
CCn1c(C(=O)N[C@@H](C)CO)ccc1C(CC)(CC)c1ccc(OCC(O)C(C)(C)C)c(C)c1 (some centres not stated) | 17500 | > 50000 | 47600 | 2800 | Non-toxic | 17300 | – | – | – | –
CCn1c(C(=O)N(C)CCC#N)ccc1C(CC)(CC)c1ccc(OCC(O)C(C)(C)C)c(C)c1 (configuration not stated) | 1700 | > 50000 | > 50000 | > 50000 | – | 14900 | – | – | – | –
CCn1c(C(=O)NCCCN2CCOCC2)ccc1C(CC)(CC)c1ccc(OCC(O)C(C)(C)C)c(C)c1 (configuration not stated) | 7.9 | 5900 | 1290 | 2070 | Non-toxic | 810 | Non-toxic | Non-toxic | 1190 | –
CCN(CC)CCNC(=O)c1ccc(C(CC)(CC)c2ccc(OCC(=O)C(C)(C)C)c(C)c2)n1CC | 30 | 1600 | 620 | 690 | – | 2500 | – | – | – | –
CCn1c(C(=O)N(C)CC(=O)O)ccc1C(CC)(CC)c1ccc(OCC(=O)C(C)(C)C)c(C)c1 | 18400 | 35900 | 25200 | 28600 | – | 8700 | – | – | – | –
CCn1c(C(=O)N(CCC#N)CCC#N)ccc1C(CC)(CC)c1ccc(OCC(O)C(C)(C)C)c(C)c1 (configuration not stated) | 7800 | 7100 | 42000 | 480 | – | 1700 | – | – | > 10000 | –
CCn1c(C(=O)NCCCN(C)C)ccc1C(CC)(CC)c1ccc(OCC(O)C(C)(C)C)c(C)c1 (configuration not stated) | 3100 | 1900 | 360 | 490 | – | 470 | – | – | 197 | –
CCn1c(C(=O)NCCN(C)C)ccc1C(CC)(CC)c1ccc(OCC(O)C(C)(C)C)c(C)c1 (configuration not stated) | 1630 | 1300 | 870 | 660 | – | 2600 | – | – | – | –
C=CCN(C)C(=O)c1ccc(C(CC)(CC)c2ccc(OCC(O)C(C)(C)C)c(C)c2)n1CC (configuration not stated) | 25900 | > 50000 | > 50000 | > 50000 | – | 6300 | – | – | – | –
CCn1c(C(=O)Oc2ccc(CCO)cc2)ccc1C(CC)(CC)c1ccc(OCC(O)C(C)(C)C)c(C)c1 (configuration not stated) | 6300 | > 50000 | > 50000 | > 50000 | – | 22700 | – | – | – | –
CCn1c(C(=O)N(C)CC(=O)O)ccc1C(CC)(CC)c1ccc(OCC(O)C(C)(C)C)c(C)c1 (configuration not stated) | 23900 | 31900 | 17000 | 25400 | – | 32600 | – | – | – | –
CCn1c(C(=O)OCc2ccc(F)cc2)ccc1C(CC)(CC)c1ccc(OCC(O)C(C)(C)C)c(C)c1 (configuration not stated) | > 50000 | > 50000 | > 50000 | > 50000 | – | 14900 | – | – | – | –
CCn1c(C(=O)NCCN)ccc1C(CC)(CC)c1ccc(OCC(O)C(C)(C)C)c(C)c1 (configuration not stated) | 940 | 1000 | 176 | 5.9 | Non-toxic | 2400 | Non-toxic | Non-toxic | 194 | –
C#CCNC(=O)c1ccc(C(CC)(CC)c2ccc(OCC(O)C(C)(C)C)c(C)c2)n1CC (configuration not stated) | 16200 | 39100 | > 50000 | > 50000 | – | 4400 | – | – | > 10000 | –
C#CC(C)OC(=O)c1ccc(C(CC)(CC)c2ccc(OCC(O)C(C)(C)C)c(C)c2)n1CC (configuration not stated) | 38200 | > 50000 | > 50000 | > 50000 | – | 23700 | – | – | – | –
CCn1c(C(=O)NCCCN2CCOCC2)ccc1C(CC)(CC)c1ccc(OCC(=O)C(C)(C)C)c(C)c1 | 11 | 3600 | 1600 | 5200 | – | 310 | – | – | 3520 | –
CCn1c(C(=O)NCCN)ccc1C(CC)(CC)c1ccc(OCC(=O)C(C)(C)C)c(C)c1 | 480 | 1900 | 180 | 75 | – | 2500 | – | – | 1010 | –
CCN(CC)CCCNC(=O)c1ccc(C(CC)(CC)c2ccc(OCC(=O)C(C)(C)C)c(C)c2)n1CC | 1800 | 1000 | 180 | 530 | – | 2300 | – | – | 863 | –
CCn1c(C(=O)NCCN(C)C)ccc1C(CC)(CC)c1ccc(OCC(=O)C(C)(C)C)c(C)c1 | 2300 | 1600 | 2300 | 520 | – | 2500 | – | – | – | –
CC[C@@H](C)[C@H](NC(=O)c1ccc(C(CC)(CC)c2ccc(OCC(=O)C(C)(C)C)c(C)c2)n1CC)C(=O)O | 1600 | 4500 | 247 | 160 | – | 1500 | – | – | 564 | –
CCOc1ccc(NC(=O)c2ccc(C(CC)(CC)c3ccc(OCC(O)C(C)(C)C)c(C)c3)n2CC)cc1 (configuration not stated) | – | – | – | – | – | – | – | – | 9250 | –
CCN(CC)CCNC(=O)c1ccc(C(CC)(CC)c2ccc(OCC(O)C(C)(C)C)c(C)c2)n1CC (configuration not stated) | 220 | 2310 | 490 | 690 | – | 2500 | – | – | – | –
CCn1c(C(=O)NCC(OC)OC)ccc1C(CC)(CC)c1ccc(OCC(O)C(C)(C)C)c(C)c1 (configuration not stated) | 14600 | > 50000 | 23200 | > 50000 | – | 22200 | – | – | 5230 | –
CCn1c(C(=O)NCCCN(C)C)ccc1C(CC)(CC)c1ccc(OCC(=O)C(C)(C)C)c(C)c1 | 1600 | 1400 | 960 | 340 | – | 670 | – | – | – | –
CCOC(=O)CN(C)C(=O)c1ccc(C(CC)(CC)c2ccc(OCC(O)C(C)(C)C)c(C)c2)n1CC (configuration not stated) | 25500 | 12200 | > 50000 | 9200 | – | 10100 | – | – | – | –
CC[C@@H](C)[C@H](NC(=O)c1ccc(C(CC)(CC)c2ccc(OCC(O)C(C)(C)C)c(C)c2)n1CC)C(=O)O (some centres not stated) | 1900 | 3400 | 127 | 2000 | – | 1400 | – | – | 389 | –
CCN(CC)CCCNC(=O)c1ccc(C(CC)(CC)c2ccc(OCC(O)C(C)(C)C)c(C)c2)n1CC (configuration not stated) | 2500 | 1800 | 1100 | 190 | – | 2500 | – | – | 71.1 | –
C=C1/C(=C\C=C2/CCC[C@]3(C)[C@@H]([C@H](C)CCCC(C)(C)O)CC[C@@H]23)C[C@@H](O)C[C@@H]1O [CALCITRIOL] | – | – | – | – | – | – | – | – | – | 13.11
